Values joined by “and” are separate entries in the source; they are usually repeats but may differ in a detail not shown here. Equal entries are not always repeated. Where two headings read alike, the source gives them in different places. Marks after values point to notes of the source that are not given here.
What was measured:
[1] = Stability of tapentadol valine carbamate in simulated gastric and intestinal fluids, water and pH 10 buffer; assay type: physicochemical
[2] = Comparative in vivo bioavailability study in the dog (oral gavage, plasma LC-MS-MS)
Description: Test substances (i.e., tapentadol (1 mg/kg) and tapentadol valine carbamate (0.8 mg tapentadol base equivalents/kg)) were administered by oral gavage to a group of five dogs (dog nos. 1, 2, 3, 4 and 5) in a two-way crossover design. The characteristics of the test animals are set out in Table 3.
(§1) Blood samples were taken at various times after administration and submitted to analysis for the parent drug and pro-drug using a validated LC-MS-MS assay. Pharmacokinetic parameters derived from the plasma analytical data were determined using Win Nonlin.

[3] = test system: guinea pig small intestine myenteric plexus longitudinal muscle; assay: Electrical field stimulation response of isolated guinea pig small intestine smooth muscle (ex vivo); settings: isolated guinea pig ileum
Description: Strips of guinea pig small intestine myenteric plexus longitudinal muscle and mounted between platinum ring electrodes. The tissue was stretched to a steady tension of about 1 g and changes in force production were recorded using sensitive transducers.
The optimal voltage for stimulation was determined while the tissue was paced with electrical field stimulation (EFS) at 14 Hz, with a pulse width of 0.5 msec (Trains of pulses for 20 seconds, every 50 seconds).
EFS at optimal voltage continued throughout the protocol (stable responses=“baseline measurement of EFS”).
The 3 test conditions employed were as follows:
(1) Vehicle (deionised water, added at equivalent volume additions to test articles), (2) Tapentadol at 6 concentrations (10 nM, 100 nM, 1 μM, 3 μM, 10 μM & 30 μM) (3) Tapentadol valine carbamate at 6 concentrations (10 nM, 100 nM, 1 μM, 3 μM, 10 μM, & 30 μM).
Following 10 minutes of baseline EFS, first addition of test article or vehicle (deionized water) was performed.
Test concentrations were added in a non-cumulative manner with PSS washes between each addition. Next, TTX (Na+ channel blocker) was added to confirm EFS responses were elicited via nerve stimulation. EFS was then stopped.

[4] = Comparative bioavailability after oral administration to rats (plasma LC-MS-MS); assay type: in vivo; settings: male rat, oral tapentadol valine carbamate 10 mg tapentadol free base equiv/kg, individual animals 6-10
Description: Test substances, i.e., tapentadol or tapentadol valine carbamate were administered by oral gavage to groups of male Sprague Dawley rats.
as §1

[5] = oral tapentadol valine carbamate 0.8 mg tapentadol base equiv/kg, individual dogs 1-5

CC[C@H](c1cccc(OC(=O)N[C@H](C(=O)O)C(C)C)c1)[C@H](C)CN(C)C (racemic) [Tapentadol valine carbamate, 2-[3-(3-Dimethylamino-1-ethyl-2-methyl-propyl)-phenoxycarbonylamino]-3-methyl-butyric acid]
Simulated gastric fluid (pH 1.1): % remaining after 2 h/37° C. ([1]; USP simulated gastric fluid pH 1.1, 2 h, 37° C., HPLC): 100% | Simulated intestinal fluid (pH 6.8): % remaining after 2 h/37° C. ([1]; USP simulated intestinal fluid pH 6.8, 2 h, 37° C., HPLC): 100% | Distilled water (pH 5.9): % remaining after 2 h/20° C. ([1]; distilled water pH 5.9, 2 h, 20° C.): 100% | pH 10.0 buffer: % remaining after 2 h/20° C. ([1]; pH 10.0 buffer, 2 h, 20° C.): 82% | stability under the conditions existing in the GI tract ([1]; summary in words of Table 2): stable | half-life ([2]; Beagle, plasma, po, 0.8 mg/kg, oral tapentadol valine carbamate 0.8 mg tapentadol base equiv/kg, calculated as ln2/mean k, read-out: t½ of tapentadol valine carbamate (converted)): 4.8 h | Cmax ([2]; Beagle, plasma, po, 0.8 mg/kg, oral tapentadol valine carbamate 0.8 mg tapentadol base equiv/kg, individual dogs 1-5, read-out: Cmax of tapentadol valine carbamate): 42.8 ng/mL | AUC ([2]; Beagle, plasma, po, 0.8 mg/kg, oral tapentadol valine carbamate 0.8 mg tapentadol base equiv/kg, mean of 5 dogs, read-out: AUC of tapentadol valine carbamate): 205 ng·h/mL | AUC(0-t) ([2]; Beagle, plasma, po, 0.8 mg/kg, oral tapentadol valine carbamate 0.8 mg tapentadol base equiv/kg, mean of 5 dogs, read-out: AUCt of tapentadol valine carbamate): 192 ng·h/mL | Cmax ([2]; Beagle, plasma, po, 0.8 mg/kg, oral tapentadol valine carbamate 0.8 mg tapentadol base equiv/kg, mean of 5 dogs, read-out: Cmax of tapentadol valine carbamate): 53.4 ng/mL | Tmax ([2]; Beagle, plasma, po, 0.8 mg/kg, oral tapentadol valine carbamate 0.8 mg tapentadol base equiv/kg, median of 5 dogs, read-out: Tmax of tapentadol valine carbamate): 1 h | increase of duration of sustainment of active drug in the blood ([2]; following administration of the prodrug compared to tapentadol alone): two to three fold | duration of drug sustainment in plasma ([2]; oral prodrug vs oral tapentadol): doubling | AUC of tapentadol valine carbamate [2, 5]: 157 ng·h/mL and 126 ng·h/mL and 272 ng·h/mL and 221 ng·h/mL and 252 ng·h/mL | AUCt of tapentadol valine carbamate [2, 5]: 131 ng·h/mL and 119 ng·h/mL and 260 ng·h/mL and 208 ng·h/mL and 241 ng·h/mL | Cmax of tapentadol valine carbamate [2, 5]: 45.3 ng/mL and 62.3 ng/mL and 46.4 ng/mL and 70.0 ng/mL | T>50%Cmax of tapentadol valine carbamate [2, 5]: 1.5 h (4×) and 0.5 h | Tmax of tapentadol valine carbamate [2, 5]: 2 h | t½ of tapentadol valine carbamate [2, 5]: 6.7 h and 3.0 h and 5.0 h and 5.9 h and 5.3 h | T>50%Cmax of tapentadol valine carbamate ([2]; oral tapentadol valine carbamate 0.8 mg tapentadol base equiv/kg, median of 5 dogs): 1.5^a h | EC50 ([3]; Cavia porcellus, EFS 14 Hz, non-cumulative 10 nM-30 μM, read-out: approximate EC50, effect on electrical field stimulation response): ~10 µM | reduction in the opioid effects on ileal smooth muscle compared to tapentadol ([3]; EFS): 50 fold | concentration at 0.5 h ([4]; Sprague Dawley, plasma, 0.5 h, read-out: Plasma concentration of tapentadol valine carbamate): 64.5 ng/mL | concentration at 1 h ([4]; Sprague Dawley, plasma, 1 h, read-out: Plasma concentration of tapentadol valine carbamate): 72.4 ng/mL | concentration at 2 h ([4]; Sprague Dawley, plasma, 2 h, read-out: Plasma concentration of tapentadol valine carbamate): 85.8 ng/mL | concentration at 4 h ([4]; Sprague Dawley, plasma, 4 h, read-out: Plasma concentration of tapentadol valine carbamate): 42.5 ng/mL | concentration at 6 h ([4]; Sprague Dawley, plasma, 6 h, read-out: Plasma concentration of tapentadol valine carbamate): 30.5 ng/mL | Plasma concentration of tapentadol valine carbamate ([4]; 0.5 h): 79.5 ng/mL and 86.5 ng/mL and 77.5 ng/mL and 111 ng/mL | Plasma concentration of tapentadol valine carbamate ([4]; 1 h): 73.8 ng/mL and 88.9 ng/mL and 83.1 ng/mL and 115 ng/mL | Plasma concentration of tapentadol valine carbamate ([4]; 2 h): 57.3 ng/mL and 106 ng/mL and 76.4 ng/mL and 86.6 ng/mL | Plasma concentration of tapentadol valine carbamate ([4]; 3 h): 76.7 ng/mL and 71.6 ng/mL and 74.8 ng/mL and 34.5 ng/mL and 86.4 ng/mL | Plasma concentration of tapentadol valine carbamate ([4]; 4 h): 46.7 ng/mL and 47.0 ng/mL and 27.5 ng/mL and 51.6 ng/mL
